# Measurements taken from publication PMC3610419, “A Randomized, Double-Blind Placebo Controlled Trial of Balapiravir, a Polymerase Inhibitor, in Adult Dengue Patients” (The Journal of Infectious Diseases, 2012).
# Experiment: Predefined clinical and routine laboratory endpoints in adult dengue patients
# Format: in vivo, human
# Conditions: for Maximum percentage increase of hematocrit level, Mean / Maximum percentage increase of hematocrit level, Median (IQR): from baseline; for Minimum quality of life score, Mean / Minimum quality of life score, Median (IQR): visual analogue scale 0-100
# Text: Key viremia endpoints of the study were as follows: area under the log-transformed viremia curve (AUC) from first dose to the end of study day 7 (study hour 168), calculated on the basis of the trapezoidal rule with values below the limit of detection replaced by half of the detection limit; time to first viremia level of <1000 copies/mL until study day 7; and time to the first negative NS1 test result. Other predefined key endpoints included fever clearance time, defined as the time from the start of treatment to the start of the first 48-hour period during which axillary temperature remained <37.5°C; maximum hematocrit level; maximum percentage increase of hematocrit level from baseline; platelet count nadir; and lowest recorded quality of life score.
# Time to event endpoints were compared between treatment groups on the basis of Cox regression and continuous endpoints on the basis of linear regression. Analyses were adjusted for the predose value of the respective endpoint; viremia and NS1 endpoints were additionally adjusted for dengue serotype. For all endpoints, we report P values of a trend test for a dose-response relationship with treatment entered as a continuous variable with values 0 (placebo), 1 (low-dose), and 2 (high-dose) into the regression model.
# [1] = High-dose (3000 mg twice a day, 5 days), n = 22
# [2] = Low-dose (1500 mg twice a day, 5 days), n = 10
smiles,measurement,setting,value
CC(C)C(=O)OC[C@@]1(N=[N+]=[N-])O[C@@H](n2ccc(N)nc2=O)[C@H](OC(=O)C(C)C)[C@@H]1OC(=O)C(C)C [Balapiravir],"effect on fever clearance time, clinical signs and routine laboratory findings",1500 mg or 3000 mg twice daily for 5 days versus placebo,did not affect
same,"Maximum ALT level, Mean",[1],75.2 IU/L
same,"Maximum ALT level, Median (IQR)",[1],68.5 (33.3–104.5) IU/L
same,"Maximum AST level, Mean",[1],118.4 IU/L
same,"Maximum AST level, Median (IQR)",[1],108.0 (45.0–151.5) IU/L
same,"Maximum INR, Mean",[1],1.27
same,"Maximum INR, Median (IQR)",[1],1.17 (1.09–1.22)
same,"Maximum aPTT, Mean",[1],41.8 s
same,"Maximum aPTT, Median (IQR)",[1],41.8 (38.3–44.1) s
same,"Maximum recorded hematocrit level, Mean",[1],44.6%
same,"Maximum recorded hematocrit level, Median (IQR)",[1],45.1 (41.8–46.1) %
same,Median fever clearance time (IQR),[1],3 (2–4) d
same,"Minimum fibrinogen level, Mean",[1],1.88 g/L
same,"Minimum fibrinogen level, Median (IQR)",[1],1.86 (1.60–2.03) g/L
same,"Minimum platelet count, Mean",[1],54.4 10^9 cells/L
same,"Minimum platelet count, Median (IQR)",[1],52 (25.5–64.8) 10^9 cells/L
same,"Maximum percentage increase of hematocrit level, Mean",[1],2.6%
same,"Maximum percentage increase of hematocrit level, Median (IQR)",[1],1.2 (−4.1–9.2) %
same,"Minimum quality of life score, Mean",[1],74.45
same,"Minimum quality of life score, Median (IQR)",[1],77.5 (67.8–82.0)
same,"Maximum ALT level, Mean",[2],96.3 IU/L
same,"Maximum ALT level, Median (IQR)",[2],97.5 (58.0–128.8) IU/L
same,"Maximum AST level, Mean",[2],143.6 IU/L
same,"Maximum AST level, Median (IQR)",[2],157.5 (116.5–171.5) IU/L
same,"Maximum INR, Mean",[2],1.17
same,"Maximum INR, Median (IQR)",[2],1.16 (1.05–1.26)
same,"Maximum aPTT, Mean",[2],41.3 s
same,"Maximum aPTT, Median (IQR)",[2],40.6 (39.6–43.1) s
same,"Maximum recorded hematocrit level, Mean",[2],46.7%
same,"Maximum recorded hematocrit level, Median (IQR)",[2],45.8 (43.8–49.3) %
same,Median fever clearance time (IQR),[2],3 (2–4) d
same,"Minimum fibrinogen level, Mean",[2],1.94 g/L
same,"Minimum fibrinogen level, Median (IQR)",[2],2.08 (1.68–2.25) g/L
same,"Minimum platelet count, Mean",[2],26.3 10^9 cells/L
same,"Minimum platelet count, Median (IQR)",[2],23 (16.5–33.0) 10^9 cells/L
same,"Maximum percentage increase of hematocrit level, Mean",[2],11.5%
same,"Maximum percentage increase of hematocrit level, Median (IQR)",[2],11.8 (3.1–15.3) %
same,"Minimum quality of life score, Mean",[2],78.3
same,"Minimum quality of life score, Median (IQR)",[2],77.0 (69.8–89.0)
